3 cell lines from the supplement of paper PMC10307832 can be followed below.

Common to all, as to assay: relative viability (nuclei count vs DMSO), 5 days (fraction); higher = more cells survive
Compound in the test “R406 + AZD7762”: COc1cc(Nc2ncc(F)c(Nc3ccc4c(n3)NC(=O)C(C)(C)O4)n2)cc(OC)c1OC [R406] + NC(=O)Nc1cc(-c2cccc(F)c2)sc1C(=O)N[C@H]1CCCNC1 [AZD7762] (partner 0.2 µM)
An outline of the steps: (§1)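 Cells from lung cancer lines were seeded into 1536-well plates and, one day later, dosed by pin tool. Treatments were either a single drug or a fixed dose of an anchor drug with five library-drug doses (not always all listed) in √10 steps. After 5 days, nuclei were stained in a one-step fixation (final 0.05% Triton X-100, 1% formaldehyde, 1 ug/ml Hoechst) and counted on 4× images, and relative viability is the treated-to-vehicle nuclei ratio, as the median of duplicate plates.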

Compound in the test “R406 + Tozasertib”: COc1cc(Nc2ncc(F)c(Nc3ccc4c(n3)NC(=O)C(C)(C)O4)n2)cc(OC)c1OC [R406] + Cc1cc(Nc2cc(N3CCN(C)CC3)nc(Sc3ccc(NC(=O)C4CC4)cc3)n2)n[nH]1 [Tozasertib] (partner 0.1 µM)
The procedure, abridged:
as §1

Compound in the test “R406 + OSI-027”: COc1cc(Nc2ncc(F)c(Nc3ccc4c(n3)NC(=O)C(C)(C)O4)n2)cc(OC)c1OC [R406] + COc1cccc2cc(-c3nc([C@H]4CC[C@H](C(=O)O)CC4)n4ncnc(N)c34)[nH]c12 [OSI-027] (partner 0.5 µM)
The procedure, abridged: as §1

Compound in the test “Daporinad + Alpelisib”: O=C(/C=C/c1cccnc1)NCCCCC1CCN(C(=O)c2ccccc2)CC1 [Daporinad] + Cc1nc(NC(=O)N2CCC[C@H]2C(N)=O)sc1-c1ccnc(C(C)(C)C(F)(F)F)c1 [Alpelisib] (partner 2 µM)
The procedure, abridged:
as §1

For PC-3 [JPC-3], the relative viability worked out at 0.817 with R406 + AZD7762 (first compound 0.08 µM); 0.819 with R406 + AZD7762 (first compound 0.253 µM); 0.923 in the test with R406 + AZD7762 (first compound 0.8 µM); 0.684 with R406 + AZD7762 (first compound 2.53 µM); 0.381 in the test with R406 + AZD7762 (first compound 8 µM); 0.942 with R406 + Tozasertib (first compound 0.08 µM). Besides, the relative viability with R406 + Tozasertib (first compound 0.253 µM) came out at 0.964; in the test with R406 + Tozasertib (first compound 0.8 µM), 1.01; in the test with R406 + Tozasertib (first compound 2.53 µM), 0.88; with R406 + Tozasertib (first compound 8 µM) it was 0.516; in the test with R406 + OSI-027 (first compound 0.08 µM), 0.854; with R406 + OSI-027 (first compound 0.253 µM), 0.872. The relative viability with R406 + OSI-027 (first compound 0.8 µM) worked out at 0.932; in the test with R406 + OSI-027 (first compound 2.53 µM), 0.494; in the test with R406 + OSI-027 (first compound 8 µM), 0.427; in the test with Daporinad + Alpelisib (first compound 0.0005 µM), 1.03; with Daporinad + Alpelisib (first compound 0.001581 µM) it was 1.03; with Daporinad + Alpelisib (first compound 0.005 µM), 1.15. Moreover, the relative viability with Daporinad + Alpelisib (first compound 0.01581 µM) came to 1.04.
As for PC-14, the relative viability was determined as 0.296 with R406 + AZD7762 (first compound 0.08 µM); 0.435 in the test with R406 + AZD7762 (first compound 0.253 µM); 0.418 with R406 + AZD7762 (first compound 0.8 µM); 0.403 in the test with R406 + AZD7762 (first compound 2.53 µM); 0.281 with R406 + AZD7762 (first compound 8 µM); 0.57 with R406 + Tozasertib (first compound 0.08 µM). Also, the relative viability is 0.681 in the test with R406 + Tozasertib (first compound 0.253 µM); 0.623 in the test with R406 + Tozasertib (first compound 0.8 µM); 0.546 with R406 + Tozasertib (first compound 2.53 µM); 0.603 in the test with R406 + Tozasertib (first compound 8 µM); 0.795 in the test with R406 + OSI-027 (first compound 0.08 µM); 1.11 with R406 + OSI-027 (first compound 0.253 µM). Further, the relative viability with R406 + OSI-027 (first compound 0.8 µM) worked out at 1.41; with R406 + OSI-027 (first compound 2.53 µM) it was 0.428; with R406 + OSI-027 (first compound 8 µM) it was 0.121; with Daporinad + Alpelisib (first compound 0.0005 µM), 0.985; in the test with Daporinad + Alpelisib (first compound 0.001581 µM), 0.97; in the test with Daporinad + Alpelisib (first compound 0.005 µM), 0.913. Besides, the relative viability in the test with Daporinad + Alpelisib (first compound 0.01581 µM) was found to be 0.897.
Consider RERF-LC-KJ, for which the relative viability came to 1 in the test with R406 + AZD7762 (first compound 0.08 µM); 1.23 with R406 + AZD7762 (first compound 0.253 µM); 1.29 with R406 + AZD7762 (first compound 0.8 µM); 0.692 in the test with R406 + AZD7762 (first compound 2.53 µM); 0.988 with R406 + AZD7762 (first compound 8 µM); 0.463 with R406 + Tozasertib (first compound 0.08 µM). Further, the relative viability in the test with R406 + Tozasertib (first compound 0.253 µM) was 0.653; with R406 + Tozasertib (first compound 0.8 µM), 0.447; in the test with R406 + Tozasertib (first compound 2.53 µM) it was 0.481; with R406 + Tozasertib (first compound 8 µM), 0.402; with R406 + OSI-027 (first compound 0.08 µM) it was 0.609; with R406 + OSI-027 (first compound 0.253 µM), 0.588. Also, the relative viability in the test with R406 + OSI-027 (first compound 0.8 µM) came to 0.623; in the test with R406 + OSI-027 (first compound 2.53 µM), 0.432; with R406 + OSI-027 (first compound 8 µM) it was 0.392; in the test with Daporinad + Alpelisib (first compound 0.0005 µM), 0.811; in the test with Daporinad + Alpelisib (first compound 0.001581 µM), 0.893; with Daporinad + Alpelisib (first compound 0.005 µM), 0.88. In addition, the relative viability with Daporinad + Alpelisib (first compound 0.01581 µM) was found to be 0.98.
